From patent US20240238254A1, “PHARMACOLOGICAL INTERVENTION OF THE ARACHIDONIC ACID PATHWAY TO CURE AMYOTROPHIC LATERAL SCLEROSIS” (The Johns Hopkins University, priority 2021, published 2024)

Legend:
[1] = system: differentiating HB9::GFP C9ORF72 and SOD1^A4V ALS lines; format: cell-based, human; settings: CA added to AA-treated sMN culture; dose dependent
Procedure: Cells were dissociated using Accutase after incubation for 20 min at 37° C. and suspended with buffer containing 40 μg/ml DNase I (Roche Applied Science). For GFP analysis, BD FACS Calibur (Becton Dickinson) and FlowJo software (Tree Star Inc.) were used. To purify GFP^+ populations for each reporter line, a MoFlo high-speed sorter (Dako Cytomation) in the Johns Hopkins School of Public Health Flow Cytometry Core Facility and a BD FACSJazz sorter in the Stem Cell Core Facility of Johns Hopkins Medicine (Institute for Cell Engineering) were used.
For Immunohistochemistry, E12.5 midbrain was dissected and fixed with 4% paraformaldehyde (PFA) overnight. After fixation, tissues were washed with PBS and incubated with 30% sucrose for cryosection as described previously^97. The following antibodies were used as a primary antibody: rabbit anti-TH (Pel-Freez Biologicals), mouse anti-Isl1 (DSHB) and rabbit anti-Phox2b (gift from Jean-Francois Brunet)^98. For Isl1 staining, a mouse on mouse kit (Vector Laboratory) was used. For immunocytochemistry, cells were fixed with 4% PFA and stained with mouse anti-ISL1 (DSHB), mouse anti-NKX6.1 (DSHB), rabbit anti-TUJ1 (BioLegend) and rabbit anti-PHOX2B (gift from Jean-Francois Brunet). For FACS analysis, cells were fixed with 4% PFA and stained with mouse anti-HB9 (DSHB) and mouse anti-ISL1 (DSHB) as described previously^99. For 7AAD analysis by FACS, staining was conducted based on commercial instruction (BD #559925). Appropriate Alexa Fluor 488, 568 and 647 (Life Technologies) labeled secondary antibodies were used with DAPI (Roche Applied Science) for nuclear staining. All images were visualized with fluorescence microscopy (Eclipse TE2000-E, Nikon).
SMN differentiation was performed as previously described^67. For general sMN culture media, neurobasal medium (Gibco) containing B27 (Gibco), N2 (Gibco), and 2 mM L-glutamine was used as a normal medium. For compound testing, neurobasal medium with N2 was used as a conditioned medium using caffeic acid (Sigma, C0625), R-Deprenyl hydrochloride (Sigma, M003), Ajamaline (MP Biomedicals, 4360-12-7), Creatine (Sigma, 1150320) and ISP-1 (Sigma, M1177), BW755C (Tocris, 105910), Nordihydroguaiaretic acid (Sigma, 74540), Apigenin (Fisher Scientific, 50908414), U-73122 (Thermo, 126810). For Arachidonic acid testing, Arachidonic acid (Cayman, 506-32-1) was treated in normal media. For mitomycin C treatment, 1 μg/ml of mitomycin C was treated in differentiating oMN or sMN cells for 1 hr at D17 and analyzed after 2 days (D19) by FACS. For fold change value, non-treated % of GFP^+ were considered as a control and fold change values were normalized upon % of GFP expression of non-treated cells by FACS. […]

[2] = system: C9ORF72 (G4C2)30 Drosophila model; assay: Fly survival experiment (progeny efficiency and survival rate); format: in vivo; settings: compound feeding; n=5 for each group
Procedure: Flies were maintained on a cornmeal-molasses-yeast medium at room temperature (22° C.) with 60-65% humidity. The following Drosophila lines were obtained from the Bloomington Stock Center: elav-GAL4, GMR-GAL4, and OK371-GAL4. The UAS-([…])3 and UAS-([…])30 lines were obtained from Dr. Peng Jin's laboratory^81. UAS-([…])30 flies recombined with OK371-Gal4 were selected as male parental flies for crossing (♀w^1118×♂OK371-Gal4: UAS-([…])30/TM6B, GAL80). Overexpressing 30 HRE in fly motor neurons using OK371-Gal4 causes lethality due to paralysis, preventing eclosion of the adult from the pupal case. According to Mendelian inheritance, the theoretical ratio of progenies with 30 HRE expressions from the above crossing is 50%. A total of 100 adult flies were collected in each group. Survival rate was calculated as the ratio of the flies with 30 HRE that survive to adulthood to total adult flies and then divided by theoretical ratio 50%.

Which “AA-induced decrease of percentages of HB9::GFP+ cells” value [1] does the source give for `O=C(O)/C=C/c1ccc(O)c(O)c1` [caffeic acid, 3,4-dihydroxy benenearcrylic acid] here?
The value was “significantly reversed”.

What about the “AA-induced increase of percentages of 7AAD+ cells” value [1] of the same compound?
Its value is “significantly reversed”.

And the progeny rate [2]?
Its progeny rate is “significant dose-dependent recovery”.

What about the survival rate [2] of the same compound?
The survival rate was “significant dose-dependent recovery”.
